Results reported in publication PMC7413254 (Nature Communications, 2020).
Like-named read-outs stand apart in the source and are kept apart here.

Experiments:
[1] = molecular target: T1, PfCRT^3D7 (Plasmodium falciparum, UniProt Q8IBZ9); assay: cell-based; assay type: cell-based; conditions: total [3H]CQ transport; for inhibition at 500 µM: [test solute] = 0.5 mM; for inhibition at 1000 µM: [test solute] = 1 mM; for inhibition at 2000 µM: [test solute] = 2 mM
Procedure, shortened: (§1)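 Washed oocytes (ten per treatment) were exposed to label in pH 5.5 ND96 for 1.5 h at 27.5 °C. Buffer was then removed, cells rinsed in ice-cold ND96, lysed in SDS and counted.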

[2] = tested on: PfCRT; assay: Potential co-substrates tested for influx of VF-6 via PfCRT into the oocyte; assay type: cell-based, Plasmodium falciparum; parameters: key: X: Compounds that have been tested as potential co-substrates but are not required for influx of VF-6 via PfCRT into the oocyte
[3] = tested on: non-expressing oocytes; assay: cells; assay type: cell-based, Xenopus laevis; conditions: Xenopus laevis, total [3H]CQ transport; for inhibition at 500 µM: [test solute] = 0.5 mM; for inhibition at 1000 µM: [test solute] = 1 mM; for inhibition at 2000 µM: [test solute] = 2 mM
Procedure, shortened: as §1

[4] = tested on: non-expressing oocytes; assay type: cell-based, Xenopus laevis; conditions: total [3H]CQ transport; for Uptake of [3H]CQ (% non-expressing oocyte control), trans-stimulation: non-expressing oocytes, normalised to the oocyte type control; for Uptake of [3H]CQ (% PfCRTDd2 control), trans-stimulation, non-expressing oocytes: mean ± SEM, SEM
Procedure, shortened: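 Oocytes (ten per treatment, ≥4 independent frogs/days) were preloaded by injecting VF-6 in 25 nL ND96 at pH 5.0, 5.5, 6.0 or 7.0, or Na^+-free choline buffer, then uptake run 1.5 h, 27.5 °C, ND96 pH 5.5 by default. Internal concentrations assumed ~400 nL oocyte volume.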

[5] = molecular target: T1, PfCRT^3D7; assay: cell-based; assay type: cell-based
Procedure, shortened: (§2)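 Transport measured in Xenopus oocytes expressing the transporters, 1.5 h at 27.5 °C in ND96 pH 5.5 unless noted. For trans-stimulation, VF-6 injected in 25 nL ND96 at pH 5.0–7.0 or Na^+-free (choline) buffer; intracellular levels based on ~400 nL oocyte volume. Ten oocytes per treatment, ≥4 experiments.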

[6] = molecular target: T2, PfCRT^Ecu1110 (Plasmodium falciparum, UniProt Q9N623, A220S/I356L/K76T/N326D); assay: cell-based; assay type: cell-based; conditions: […]
Procedure, shortened: as §2

[7] = molecular target: T3, PfCRT^Dd2 (Plasmodium falciparum, UniProt Q9N623, A220S/I356T/K76T/M74I/N326S/N75E/Q271E/R371I); assay: cell-based; assay type: cell-based; conditions: […]; for activity at 45000 µM: [test solute]i = 45 mM (30 mM for some solutes due to solubility)
Procedure, shortened: as §2

[8] = molecular target: T4, PfNT1 (Plasmodium falciparum, UniProt Q8IDM6); assay: cell-based; assay type: cell-based; conditions: for activity at 5000 µM: total [3H]CQ transport
T4 construct: expressed in transfected cells; host or cells: Xenopus laevis oocytes (stage V-VI), cRNA-injected
Procedure, shortened: as §2

[9] = tested on: PfCRT; assay: Test of solutes as potential co-substrates for influx of VF-6 via PfCRT into the oocyte; assay type: cell-based, Plasmodium falciparum; parameters: key: X: Compounds that have been tested as potential co-substrates but are not required for influx of VF-6 via PfCRT into the oocyte; conditions: X = tested
[10] = molecular target: T2, PfCRT^Ecu1110; assay: [3H]CQ uptake into Xenopus oocytes, cis-inhibition by unlabelled solute; assay type: cell-based
Procedure, shortened: as §1

[11] = molecular target: T3, PfCRT^Dd2; assay: as above; assay type: cell-based
Procedure, shortened: as §1

[12] = PfCRT3D7 oocytes, normalised to the oocyte type control, read-out: Uptake of [3H]CQ (% PfCRT3D7 control), cis-inhibition
[13] = mean ± SEM, SEM, read-out: Uptake of [3H]CQ (% PfCRTDd2 control), cis-inhibition, PfCRT3D7
[14] = Oocyte, mean ± SEM, SEM, read-out: Uptake of [3H]CQ (% PfCRTDd2 control), cis-inhibition, non-expressing oocytes
[15] = non-expressing oocytes, normalised to the oocyte type control, read-out: Uptake of [3H]CQ (% non-expressing oocyte control), cis-inhibition
[16] = read-out: PfCRT-mediated [3H]CQ transport, cis-inhibition (% PfCRTEcu1110 control)
[17] = read-out: Uptake of [3H]CQ (% PfCRTDd2 control), cis-inhibition, PfCRTEcu1110, SEM
[18] = read-out: Uptake of [3H]CQ (% PfCRTEcu1110 control), cis-inhibition
[19] = read-out: [3H]CQ transport (% PfCRTEcu1110 control), cis-inhibition, PfCRTEcu1110, SEM
[20] = read-out: PfCRT-mediated [3H]CQ transport, cis-inhibition (% PfCRTDd2 control)
[21] = read-out: Uptake of [3H]CQ (% PfCRTDd2 control), cis-inhibition, PfCRTDd2, SEM

T2 sequence (Q9N623 whole entry A220S/I356L/K76T/N326D): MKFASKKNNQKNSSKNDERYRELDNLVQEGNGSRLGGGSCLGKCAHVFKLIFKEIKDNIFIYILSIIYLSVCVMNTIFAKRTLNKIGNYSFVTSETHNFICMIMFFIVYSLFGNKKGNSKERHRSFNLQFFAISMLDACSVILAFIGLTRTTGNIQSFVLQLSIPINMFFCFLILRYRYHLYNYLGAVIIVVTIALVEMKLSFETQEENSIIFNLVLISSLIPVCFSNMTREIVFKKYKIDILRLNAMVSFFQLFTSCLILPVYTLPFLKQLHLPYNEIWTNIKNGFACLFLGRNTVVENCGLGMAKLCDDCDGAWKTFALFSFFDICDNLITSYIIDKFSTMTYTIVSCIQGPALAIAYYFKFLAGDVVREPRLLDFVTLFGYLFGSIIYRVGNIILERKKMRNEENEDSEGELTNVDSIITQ
T1 sequence (Q8IBZ9 59-398): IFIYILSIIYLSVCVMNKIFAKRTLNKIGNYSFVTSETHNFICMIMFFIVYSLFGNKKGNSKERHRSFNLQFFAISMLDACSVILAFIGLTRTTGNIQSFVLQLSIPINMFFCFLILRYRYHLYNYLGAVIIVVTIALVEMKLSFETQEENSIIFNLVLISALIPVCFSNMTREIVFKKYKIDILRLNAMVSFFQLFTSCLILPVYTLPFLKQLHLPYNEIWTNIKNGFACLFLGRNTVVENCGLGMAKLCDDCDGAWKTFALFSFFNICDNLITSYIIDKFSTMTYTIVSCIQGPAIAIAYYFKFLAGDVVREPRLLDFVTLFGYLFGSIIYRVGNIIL
T4 sequence (Q8IDM6 whole entry): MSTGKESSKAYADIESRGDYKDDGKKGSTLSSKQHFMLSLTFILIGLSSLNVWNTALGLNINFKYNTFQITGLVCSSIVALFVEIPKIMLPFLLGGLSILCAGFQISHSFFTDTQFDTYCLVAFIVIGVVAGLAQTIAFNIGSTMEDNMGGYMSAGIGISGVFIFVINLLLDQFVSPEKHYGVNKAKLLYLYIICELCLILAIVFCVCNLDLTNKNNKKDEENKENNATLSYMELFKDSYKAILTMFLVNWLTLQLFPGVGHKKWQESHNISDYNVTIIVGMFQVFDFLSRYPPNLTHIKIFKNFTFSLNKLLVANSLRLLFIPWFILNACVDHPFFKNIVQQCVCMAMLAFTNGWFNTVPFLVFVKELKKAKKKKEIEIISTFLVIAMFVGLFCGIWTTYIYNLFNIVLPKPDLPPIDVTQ
T3 sequence (Q9N623 whole entry A220S/I356T/K76T/M74I/N326S/N75E/Q271E/R371I): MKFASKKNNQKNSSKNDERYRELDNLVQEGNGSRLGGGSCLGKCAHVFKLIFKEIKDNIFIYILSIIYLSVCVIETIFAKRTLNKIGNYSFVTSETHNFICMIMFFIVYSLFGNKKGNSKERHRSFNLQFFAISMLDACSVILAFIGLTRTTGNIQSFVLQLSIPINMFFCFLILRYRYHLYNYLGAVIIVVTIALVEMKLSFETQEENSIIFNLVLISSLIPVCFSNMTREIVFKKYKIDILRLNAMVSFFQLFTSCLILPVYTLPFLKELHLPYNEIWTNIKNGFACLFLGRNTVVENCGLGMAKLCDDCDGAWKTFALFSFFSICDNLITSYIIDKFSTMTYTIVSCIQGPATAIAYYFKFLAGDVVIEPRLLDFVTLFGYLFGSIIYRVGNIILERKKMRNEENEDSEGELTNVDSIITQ

SMILES: N[C@@H](Cc1ccccc1)C(=O)O [L-phenylalanine]
- inhibition at 500 µM [1, 12]: 99 ± 4.3%
- inhibition at 1000 µM [1, 12]: 99 ± 5.2%
- inhibition at 2000 µM [1, 12]: 100 ± 3.6%
- inhibition at 500 µM [1, 13]: 3.1 ± 0.06%
- inhibition at 1000 µM [1, 13]: 3.1 ± 0.06%
- inhibition at 2000 µM [1, 13]: 3.1 ± 0.07%
- Tested as potential co-substrate but not required for influx of VF-6 via PfCRT into the oocyte [2]: X
- inhibition at 500 µM [3, 14]: 3 ± 0.06%
- inhibition at 1000 µM [3, 14]: 2.7 ± 0.04%
- inhibition at 2000 µM [3, 14]: 2.3 ± 0.1%
- inhibition at 500 µM [3, 15]: 98 ± 6.3%
- inhibition at 1000 µM [3, 15]: 100 ± 4.6%
- inhibition at 2000 µM [3, 15]: 99 ± 3.2%
- Uptake of [3H]CQ (% non-expressing oocyte control), trans-stimulation ([4]; [test solute]i = 5 mM): 98 ± 2.6 % non-expressing oocyte control
- Uptake of [3H]CQ (% non-expressing oocyte control), trans-stimulation ([4]; [test solute]i = 45 mM (30 mM for some solutes due to solubility)): 99 ± 2.7 % non-expressing oocyte control
- Uptake of [3H]CQ (% PfCRTDd2 control), trans-stimulation, non-expressing oocytes ([4]; [test solute]i = 5 mM (intracellular)): 2.4 ± 0.03 % PfCRTDd2 control
- Uptake of [3H]CQ (% PfCRTDd2 control), trans-stimulation, non-expressing oocytes ([4]; [test solute]i = 45 mM (intracellular; 30 mM for some solutes due to solubility)): 2.2 ± 0.09 % PfCRTDd2 control
- activity at 5000 µM ([5]; PfCRT3D7 oocytes, [test solute]i = 5 mM, total [3H]CQ transport, normalised to the oocyte type control, read-out: Uptake of [3H]CQ (% PfCRT3D7 control), trans-stimulation): 98 ± 3.3%
- [3H]CQ transport (% PfCRT3D7 control), trans-stimulation, PfCRT3D7 ([5]; SEM): 0.3 ± 0.01 % PfCRT3D7 control
- activity at 5000 µM ([5]; [test solute]i = 5 mM (intracellular), PfCRT3D7 oocytes, normalised to oocyte type control, read-out: PfCRT-mediated [3H]CQ transport, trans-stimulation (% PfCRT3D7 control)): 96 ± 2.8%
- activity at 45000 µM ([5]; SEM, read-out: Uptake of [3H]CQ (% PfCRTDd2 control), trans-stimulation, PfCRT3D7): 3.3 ± 0.05%
- activity at 45000 µM ([5]; read-out: PfCRT-mediated [3H]CQ transport, trans-stimulation (% PfCRT3D7 control)): 96 ± 2.1%
- activity at 45000 µM ([5]; read-out: Uptake of [3H]CQ (% PfCRT3D7 control), trans-stimulation): 98 ± 3%
- activity at 5000 µM ([5]; total [3H]CQ transport, [test solute]i = 5 mM (intracellular), mean ± SEM, SEM, read-out: Uptake of [3H]CQ (% PfCRTDd2 control), trans-stimulation, PfCRT3D7): 3.3 ± 0.01%
- activity at 5000 µM ([6]; pH 5.5, read-out: PfCRT-mediated [3H]CQ transport, trans-stimulation (% PfCRTEcu1110 control), [test solute]i = 5 mM (intracellular), PfCRTEcu1110 oocytes, normalised to oocyte type control): 96 ± 1.9%
- activity at 5000 µM ([6]; pH 5.5, read-out: Uptake of [3H]CQ (% PfCRTEcu1110 control), trans-stimulation, PfCRTEcu1110 oocytes, [test solute]i = 5 mM, total [3H]CQ transport, normalised to the oocyte type control): 98 ± 3.4%
- activity at 45000 µM ([6]; pH 5.5, read-out: Uptake of [3H]CQ (% PfCRTEcu1110 control), trans-stimulation, PfCRTEcu1110 oocytes, [test solute]i = 45 mM (30 mM for some solutes due to solubility), total [3H]CQ transport, normalised to the oocyte type control): 101 ± 3.2%
- activity at 5000 µM ([6]; read-out: Uptake of [3H]CQ (% PfCRTDd2 control), trans-stimulation, PfCRTEcu1110, total [3H]CQ transport, [test solute]i = 5 mM (intracellular), mean ± SEM, SEM): 35 ± 1.3%
- activity at 45000 µM ([6]; read-out: Uptake of [3H]CQ (% PfCRTDd2 control), trans-stimulation, PfCRTEcu1110, total [3H]CQ transport, [test solute]i = 45 mM (intracellular; 30 mM for some solutes due to solubility), mean ± SEM, SEM): 36 ± 1.7%
- activity at 5000 µM ([7]; pH 5.5, read-out: PfCRT-mediated [3H]CQ transport, trans-stimulation (% PfCRTDd2 control), [test solute]i = 5 mM (intracellular), PfCRTDd2 oocytes, normalised to oocyte type control): 99 ± 3.9%
- activity at 5000 µM ([7]; pH 5.5, read-out: Uptake of [3H]CQ (% PfCRTDd2 control), trans-stimulation, PfCRTDd2, total [3H]CQ transport, [test solute]i = 5 mM (intracellular), mean ± SEM, SEM): 101 ± 2.4%
- activity at 5000 µM ([7]; pH 5.5, read-out: Uptake of [3H]CQ (% PfCRTDd2 control), trans-stimulation, PfCRTDd2 oocytes, [test solute]i = 5 mM, total [3H]CQ transport, normalised to the oocyte type control): 101 ± 2.4%
- activity at 45000 µM ([7]; pH 5.5, read-out: Uptake of [3H]CQ (% PfCRTDd2 control), trans-stimulation, PfCRTDd2 oocytes, total [3H]CQ transport, normalised to the oocyte type control): 100 ± 2.2%
- activity at 5000 µM ([7]; pH 5.5, read-out: [3H]CQ transport (% PfCRTDd2 control), trans-stimulation, PfCRTDd2, trans-stimulation, [test solute]i = 5 mM (injected), PfCRT-mediated component (background subtracted), mean ± SEM, SEM): 99 ± 3.9%
- activity at 45000 µM ([7]; pH 5.5, read-out: [3H]CQ transport (% PfCRTDd2 control), trans-stimulation, PfCRTDd2, trans-stimulation, PfCRT-mediated component (background subtracted), mean ± SEM, SEM): 98 ± 3%
- activity at 5000 µM ([8]; PfNT1 oocytes, [test solute]i = 5 mM, normalised to the oocyte type control, read-out: Uptake of [3H]CQ (% PfNT1 control), trans-stimulation): 99 ± 2.2%
- activity at 45000 µM ([8]; SEM, read-out: Uptake of [3H]CQ (% PfCRTDd2 control), trans-stimulation, PfNT1): 2.8 ± 0.07%
- activity at 45000 µM ([8]; read-out: Uptake of [3H]CQ (% PfNT1 control), trans-stimulation): 100 ± 2.5%
- activity at 5000 µM ([8]; [test solute]i = 5 mM (intracellular), mean ± SEM, SEM, read-out: Uptake of [3H]CQ (% PfCRTDd2 control), trans-stimulation, PfNT1): 3 ± 0.01%
- Tested as potential co-substrate but not required for influx of VF-6 via PfCRT into the oocyte [9]: X
- inhibition at 500 µM [10, 16]: 95 ± 3.6%
- inhibition at 1000 µM [10, 16]: 95 ± 0.3%
- inhibition at 500 µM [10, 17]: 32 ± 2.5%
- inhibition at 1000 µM [10, 17]: 32 ± 1.5%
- inhibition at 2000 µM [10, 17]: 32 ± 1.5%
- inhibition at 500 µM [10, 18]: 97 ± 2.1%
- inhibition at 1000 µM [10, 18]: 96 ± 1.8%
- inhibition at 2000 µM [10, 18]: 98 ± 2.4%
- inhibition at 500 µM [10, 19]: 29 ± 0.7%
- inhibition at 1000 µM [10, 19]: 29 ± 1.7%
- inhibition at 2000 µM [10, 19]: 29 ± 0.5%
- inhibition at 500 µM [11, 20]: 94 ± 2.7%
- inhibition at 1000 µM [11, 20]: 95 ± 2.7%
- inhibition at 500 µM [11, 21]: 96 ± 3.6%
- inhibition at 1000 µM [11, 21]: 97 ± 3.3%
- inhibition at 2000 µM [11, 21]: 98 ± 2.2%
